Data as given in US5482967A, “Condensed heterocyclic compounds, their production and use” (Takeda Chemical Industries, Ltd., priority 1992, dated 1996).
Where a name gives a salt, the structure may show the parent alone.

target: substance P receptor (Homo sapiens, UniProt P25103); assay: Radioligand receptor binding inhibitory assay using receptor from human lymphoblast cells (IM-9), 125I-BHSP; details: IM-9 receptor, 25° C., 30 minutes
Method: The method of A. Margaret et al. [Molecular Pharmacology 42, 458 (1992)] was modified and used. The receptor was prepared from human lymphoblast cells (IM-9). IM-9 cells were grown in 175 cm^2 tissue culture flasks (100 ml×10) at a density approximately 2×10^5 /ml of RPMI 1640 with L-glutamine, 10% (V/V) heat inactivated fetal calf serum, penicillin (100 u/ml), and streptomycin (100 μg/ml) at 37° C. in 5% CO2 /95% air for 3 days. IM-9 cells were obtained by centrifugation at 500×g for 5 minutes at 5° C. The pellet obtained was washed once with phosphate buffer (Flow Laboratories, CAT No. 28-103-05), homogenized using Polytron homogenizer (Kinematika, Germany) in 30 ml of 50 mM Tris-HCl buffer containing 120 mM NaCl, 5 mM KCl, 2 μg/ml phenylmethyl sulfonyl fluoride, and 1 mM ethylenediamine tetra-acetic acid and then centrifuged at 40,000×g for 20 minutes. The residue was washed twice with 30 ml of buffer described above, and preserved frozen (-80° C.).
The above specimen was suspended in a reaction buffer (50 mM Tris-HCl buffer (pH 7.4), 0.02% bovine serum albumin, 1 mM phenylmethylsulfonyl fluoride, 2 μg/ml chymostatin, 40 μg/ml bacitracin, 3 mM manganese chloride) at a protein concentration of 1.5 mg/ml and a 100 μl portion of the suspension was used in the reaction. After addition of the sample and 125I-BHSP (0.46 KBq), the reaction was conducted in 0.2 ml of reaction buffer at 25° C. for 30 minutes. The amount of nonspecific binding was determined by adding substance P at a final concentration of 2×10^-6 M. After the reaction, using a cell harvester (290PHD, Cambridge Technology, Inc., England), rapid filtration was carried out through a glass filter (GF/B, Whatman, U.S.A.) to stop the reaction. After washing three times with 250 μl of 50 mM Tris-HCl buffer (pH 7.4) containing 0.02% bovine serum albumin, the radioactivity remaining on the filter was measured with a gamma counter. Before use, the filter was immersed in 0.1% polyethyleneimine for 24 hours and air-dried.

Chain of substance P receptor (P25103 whole entry): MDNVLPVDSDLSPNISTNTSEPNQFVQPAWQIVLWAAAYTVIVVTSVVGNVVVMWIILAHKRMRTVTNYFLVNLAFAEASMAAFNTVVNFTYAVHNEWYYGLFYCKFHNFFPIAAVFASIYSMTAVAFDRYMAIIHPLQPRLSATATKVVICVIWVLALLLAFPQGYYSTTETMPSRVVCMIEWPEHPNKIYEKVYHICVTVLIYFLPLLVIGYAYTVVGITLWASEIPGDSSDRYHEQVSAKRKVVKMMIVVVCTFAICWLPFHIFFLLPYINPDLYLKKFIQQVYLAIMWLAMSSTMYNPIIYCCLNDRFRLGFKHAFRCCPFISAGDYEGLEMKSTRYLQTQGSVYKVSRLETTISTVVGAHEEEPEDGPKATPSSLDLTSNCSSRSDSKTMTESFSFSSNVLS

| Compound | IC50 |
| --- | --- |
| Cc1ccccc1-c1c(C[S+]([O-])Cc2cc(C(F)(F)F)cc(C(F)(F)F)c2)n(C)c(=O)c2ccccc12 (stereo not drawn) [Example 218, 3,5-Bis(trifluoromethyl)benzyl 1,2-dihydro-2-methyl-4-(2-methylphenyl)-1-oxo-3-isoquinolinemethyl sulfoxide] | 23 nM |
| COc1nc2ccccc2c(-c2ccccc2)c1C(=O)N(C)Cc1cc(C(F)(F)F)cc(C(F)(F)F)c1 [Example 270, N-[3,5-Bis(trifluoromethyl)benzyl]-2-methoxy-N-methyl-4-phenyl-3-quinolinecarboxamide] | 10 nM |
| COc1ccccc1-c1c(C(=O)NCc2cc(C(F)(F)F)cc(C(F)(F)F)c2)n(C)c(=O)c2ccccc12 [Example 158, N-[3,5-Bis(trifluoromethyl)benzyl]-1,2-dihydro-4-(2-methoxyphenyl)-2-methyl-1-oxo-3-isoquinolinecarboxamide] | 78 nM |
| CCN(Cc1ccccc1OC)C(=O)c1c(-c2ccccc2C)c2ccccc2c(=O)n1C [Example 107, N-Ethyl-1,2-dihydro-N-(2-methoxybenzyl)-2-methyl-4-(2-methylphenyl)-1-oxo-3-isoquinolinecarboxamide] | 34 nM |
| Cc1cc(F)ccc1-c1c(C(=O)NCc2cc(C(F)(F)F)cc(C(F)(F)F)c2)n(C)c(=O)c2ccccc12 [Example 175, N-[3,5-Bis(trifluoromethyl)benzyl]-4-(4-fluoro-2-methylphenyl)-1,2-dihydro-2-methyl-1-oxo-3-isoquinolinecarboxamide] | 6.2 nM |
| Cc1cc2c(-c3ccccc3)c(C(=O)NCc3cc(C(F)(F)F)cc(C(F)(F)F)c3)n(CC(N)=O)c(=O)c2cc1C [Example 225, N-[3,5-Bis(trifluoromethyl)benzyl]-2-carbamoylmethyl-1,2-dihydro-6,7-dimethyl-1-oxo-4-phenyl-3-isoquinolinecarboxamide] | 94 nM |
| CN(Cc1cc(C(F)(F)F)cc(C(F)(F)F)c1)C(=O)c1c(-c2ccccc2)c2ccccc2c(=S)n1C [Example 285, N-[3,5-Bis(trifluoromethyl)benzyl]-1,2-dihydro-N,2-dimethyl-4-phenyl-1-thioxo-3-isoquinolinecarboxamide] | 9.4 nM |
| COc1ccccc1CNCc1c(-c2ccccc2)c2cc(C)c(C)cc2c(=O)n1C [Example 190, 1,2-Dihydro-N-(2-methoxybenzyl)-2,6,7-trimethyl-1-oxo-4-phenyl-3-isoquinolinemethylamine] | 13 nM |
| CN(Cc1cc(C(F)(F)F)cc(C(F)(F)F)c1)C(=O)c1cnc2ccc(Cl)cc2c1-c1ccccc1 [Example 264, N-[3,5-Bis(trifluoromethyl)benzyl]-6-chloro-N-methyl-4-phenyl-3-quinolinecarboxamide] | 16 nM |
| COc1ccccc1CNC(=O)c1c(-c2ccccc2)c2cc(C)c(C)cc2c(=O)n1C [Example 110, 1,2-Dihydro-N-(2-methoxybenzyl)-2,6,7-trimethyl-1-oxo-4-phenyl-3-isoquinolinecarboxamide] | 90 nM |
| CCOC(=O)CCn1c(C(=O)NCc2cc(C(F)(F)F)cc(C(F)(F)F)c2)c(-c2ccccc2)c2ccccc2c1=O [Example 179, N-[3,5-Bis(trifluoromethyl)benzyl]-2-(2-ethoxycarbonylethyl)-1,2-dihydro-1-oxo-4-phenyl-3-isoquinolinecarboxamide] | 80 nM |
| Cn1c(C(=O)NCc2cc(C(F)(F)F)cc(C(F)(F)F)c2)c(-c2ccc(F)cc2)c2ccccc2c1=O [Example 165, N-[3,5-Bis(trifluoromethyl)benzyl]-4-(4-fluorophenyl)-1,2-dihydro-2-methyl-1-oxo-3-isoquinolinecarboxamide] | 24 nM |
| CN(Cc1cc(C(F)(F)F)cc(C(F)(F)F)c1)C(=O)c1c(-c2ccccc2)c2ccccc2[nH]c1=O [Example 258, N-[3,5-Bis(trifluoromethyl)benzyl]-1,2-dihydro-N-methyl-2-oxo-4-phenyl-3-quinolinecarboxamide] | 3.1 nM |
| Cc1cc(C)cc(COCc2c(-c3ccccc3)c3cc(C)c(C)cc3c(=O)n2C)c1 [Example 208, 1,2-Dihydro-2,6,7-trimethyl-1-oxo-4-phenyl-3-isoquinolinemethyl 3,5-dimethylbenzyl ether] | 140 nM |
| Cc1cccc(C)c1-c1c(C(=O)NCc2cc(C(F)(F)F)cc(C(F)(F)F)c2)n(C)c(=O)c2ccccc12 [Example 122, N-[3,5-Bis(trifluoromethyl)benzyl]-1,2-dihydro-2-methyl-4-(2,6-dimethylphenyl)-1-oxo-3-isoquinolinecarboxamide] | 82 nM |
| Cc1cccc(C)c1-c1c(C(=O)N(C)Cc2cc(C(F)(F)F)cc(C(F)(F)F)c2)n(C)c(=O)c2ccccc12 [Example 123, N-[3,5-Bis(trifluoromethyl)benzyl]-1,2-dihydro-4-(2,6-dimethylphenyl)-N,2-dimethyl-1-oxo-3-isoquinolinecarboxamide] | 46 nM |
| CN(Cc1cc(C(F)(F)F)cc(C(F)(F)F)c1)C(=O)c1c(Cl)nc2ccccc2c1-c1ccccc1 [Example 269, N-[3,5-Bis(trifluoromethyl)benzyl]-2-chloro-N-methyl-4-phenyl-3-quinolinecarboxamide] | 1.4 nM |
| COc1ccc(CNC(=O)c2c(-c3ccccc3)c3cc(C)c(C)cc3c(=O)n2C)cc1 [Example 109, 1,2-Dihydro-N-(4-methoxybenzyl)-2,6,7-trimethyl-1-oxo-4-phenyl-3-isoquinolinecarboxamide] | 50 nM |
| CN(Cc1cc(C(F)(F)F)cc(C(F)(F)F)c1)C(=O)c1c(-c2ccccc2)c2ccccc2n(C)c1=O [Example 260, N-[3,5-Bis(trifluoromethyl)benzyl]-1,2-dihydro-N,1-dimethyl-2-oxo-4-phenyl-3-quinolinecarboxamide] | 1 nM |

Further lines, results first:

| IC50 | Compound |
| --- | --- |
| 0.5 nM | CN(Cc1cc(C(F)(F)F)cc(C(F)(F)F)c1)C(=O)c1[nH]c(=O)c2ccccc2c1-c1ccccc1 [Example 172, N-[3,5-Bis(trifluoromethyl)benzyl]-1,2-dihydro-N-methyl-1-oxo-4-phenyl-3-isoquinolinecarboxamide] |
| 17 nM | CN(C)CCn1c(C(=O)N(C)Cc2cc(C(F)(F)F)cc(C(F)(F)F)c2)c(-c2ccccc2)c2ccccc2c1=O [Example 184, N-[3,5-Bis(trifluoromethyl)benzyl]-2-[2-(N,N-dimethylamino)ethyl]-1,2-dihydro-N-methyl-1-oxo-4-phenyl-3-isoquinolinecarboxamide hydrochloride] |
| 28 nM | Cc1cc(C)cc(CNCc2c(-c3ccccc3)c3cc(C)c(C)cc3c(=O)n2C)c1 [Example 191, N-(3,5-Dimethylbenzyl)-1,2-dihydro-2,6,7-trimethyl-1-oxo-4-phenyl-3-isoquinolinemethylamine] |
| 0.9 nM | CN(Cc1cc(C(F)(F)F)cc(C(F)(F)F)c1)C(=O)c1oc(=O)c2ccccc2c1-c1ccccc1 [Example 243, N-[3,5-Bis(trifluoromethyl)benzyl]-N-methyl-1-oxo-4-phenyl-1H-2-benzopyran-3-carboxamide] |
| 5.2 nM | Cc1ccc2c(=O)oc(C(=O)N(C)Cc3cc(C(F)(F)F)cc(C(F)(F)F)c3)c(-c3ccccc3)c2c1 [Example 247] |
| 20 nM | Cn1c(C(=O)NCc2ccc(C(F)(F)F)cc2)c(-c2ccccc2)c2ccccc2c1=O [Example 171, 1,2-Dihydro-2-methyl-1-oxo-4-phenyl-N-[4-(trifluoromethyl)benzyl]-3-isoquinolinecarboxamide] |
| 58 nM | CN(Cc1cc(C(F)(F)F)cc(C(F)(F)F)c1)C(=O)[C@H]1[C@H](c2ccc(F)cc2)c2ccccc2C(=O)N1C (relative stereo) [Example 280, 3,4-trans-N-[3,5-Bis(trifluoromethyl)benzyl]-4-(4-fluorophenyl)-1,2,3,4-tetrahydro-N,2-dimethyl-1-oxo-3-isoquinolinecarboxamide] |
| 0.36 nM | Cc1ccccc1-c1c(C(=O)N(C)Cc2cc(C(F)(F)F)cc(C(F)(F)F)c2)c(=O)oc2ccccc12 [Example 254, N-[3,5-Bis(trifluoromethyl)benzyl]-N-methyl-4-(2-methylphenyl)-2-oxo-2H-1-benzopyran-3-carboxamide] |
| 23 nM | Cn1c(COCc2cc(C(F)(F)F)cc(C(F)(F)F)c2)c(-c2ccccc2)c2ccccc2c1=O [Example 211, 3,5-Bis(trifluoromethyl)benzyl 1,2-dihydro-2-methyl-1-oxo-4-phenyl-3-isoquinolinemethyl ether] |
| 1.6 nM | COc1ccccc1-c1c(C(=O)N(C)Cc2cc(C(F)(F)F)cc(C(F)(F)F)c2)oc(=O)c2ccccc12 [Example 244, N-[3,5-Bis(trifluoromethyl)benzyl]-4-(2-methoxyphenyl)-N-methyl-1-oxo-1H-2-benzopyran-3-carboxamide] |
| 88 nM | COc1cccc(CNC(=O)c2c(-c3ccccc3)c3cc(C)c(C)cc3c(=O)n2C)c1 [Example 128, 1,2-Dihydro-N-(3-methoxybenzyl)-2,6,7-trimethyl-1-oxo-4-phenyl-3-isoquinolinecarboxamide] |
